Laboratory results from patent US7829591B2, “Flavanone compound and uses thereof” (Pokka Corporation, priority 2003, dated 2010).

What was measured:
[1] = DPPH radical scavenging activity test; type: biochemical; settings: for Radical Scavenging Activity (%) from DPPH Radical Scavenging Activity Test: 25 μM sample solution in ethanol, 1 h in dark, absorbance 517 nm, average ± SD of three runs
Protocol: DPPH (α,α-diphenyl-β-picrylhydradil) is a purple stable radical having a maximum absorption at 517 nm, which is converted into colorless hydrazine by gaining hydrogen. This color reaction was utilized so as to determine the radical scavenging activity of each of Compounds 1 to 4 and the like. That is, each of Compounds 1 to 4 was dissolved in ethanol to prepare 3 ml of a sample solution having a concentration of 25 μM. Thereafter, to each of the resultant sample solutions, 0.75 ml of a 0.5 mM DPPH solution (whose solvent was ethanol) was added and stirred, and reacted in a dark place for one hour, followed by the determination of an absorbance at 517 nm. Furthermore, in place of Compounds 1 to 4, BHT (butylated hydroxytoluene), α-tocopherol or eriodictyol was used so as to determine an absorbance according to a similar procedure to the above. Besides, instead of the above sample solutions, ethanol was used as a control so as to determine an absorbance according to a similar procedure to the above. Then the radical scavenging activity (%) of each of the materials was calculated using the following calculation formula 1. Incidentally, each of values shown in Table 1 is the average value and standard deviation of values obtained from three runs. (Radical Scavenging Activity)=[{(Absorbance of Control)−(Absorbance of Sample Solution)}/(Absorbance of Control)]×100 Calculation Formula 1

β-carotene fading test = type: biochemical; settings: for Antioxidant Activity (%) from β-carotene Fading Test: 20 μM in reaction liquid, 60° C. for 60 minutes, absorbance 470 nm, average ± SD of three runs; for antioxidant activity (in words): comparison from Table 1
Protocol: β-carotene will fade due to the reaction of linoleic acid peroxide, which is produced by the autoxidation of linoleic acid, with a double bond in β-carotene. This phenomenon was utilized so as to determine the antioxidant activity of each of Compounds 1 to 4 and the like. That is, first of all, 2 ml of a 200 mg/ml solution of Tween-40 in chloroform, 0.4 ml of a 100 mg/ml solution of linoleic acid in chloroform, and 3 ml of a 0.1 mg/ml solution of β-carotene in chloroform were mixed, and thereafter the solvent was removed by using a nitrogen gas. Subsequently, 100 ml of distilled water was added thereto, and adequately stirred to obtain an emulsion. To 3 ml of this emulsion, ethanol was added to completely dissolve the solute in the solvent. Thereafter, each of Compounds 1 to 4 was dissolved in ethanol so as to prepare a sample solution having a concentration of 1.2 mM. 50 μl of the sample solution was mixed with the above emulsion wherein the solute had been completely dissolved so as to prepare a reaction liquid (or a sample reaction liquid). Then the concentration of each of Compounds 1 to 4 in the reaction liquid was 20 μM. The reaction liquid was incubated at 60° C. for 60 minutes. Then the absorbance of each of the reaction liquid before the incubation and the reaction liquid after the incubation was determined at 470 nm. Furthermore, BHT, α-tocopherol, or eriodictyol was used in place of Compounds 1 to 4 so as to determine the absorbance of the reaction liquid before and after incubation according to a similar procedure to the above-mentioned one. In addition, as a control, a reaction liquid (or a control reaction liquid) wherein no sample solution was contained was prepared so as to determine the absorbance of the reaction liquid before and after incubation according to a similar procedure to the above-mentioned one. The antioxidant activity (%) of each of the materials was calculated using the following calculation formula 2. Incidentally, each of values shown in Table 1 is the average value and standard deviation of values obtained from three runs. (Antioxidant Activity)=[{(Fading Rate of Control)−(Fading Rate of Sample Solution)}/(Fading Rate of Control)]×100 Calculation Formula 2
It should be noted that in the calculation formula 2, “Fading Rate of Control” is the natural logarithm of a value which is acquired by dividing the absorbance of the control reaction liquid before incubation by the absorbance of the control reaction liquid after incubation and further by dividing the resultant value by 60; and “Fading Rate of Sample Solution” is the natural logarithm of a value which is acquired by dividing the absorbance of the sample reaction liquid before incubation by the absorbance of the sample reaction liquid after incubation and further by dividing the resultant value by 60.

[2] = test system: breast cancer cells (MCF-7); assay: Breast cancer cell proliferation-inhibition test; type: cell-based; settings: for Relative Value of Living Cells: 0.1 nM estradiol, Control 1 at 0 day = 1; for inhibiting effect on the proliferation of breast cancer cells (in words): 20 μM, compared with Control 1
Protocol: When breast cancer cells (MCF-7) are cultured, if estradiol (or 17β-estradiol) having a cell-proliferation accelerating action, is added thereto, the proliferation of breast cancer cells can be simply promoted in a short period. This phenomenon was utilized so as to examine the effect of each of Compounds 1 to 4 and the like on the proliferation inhibition of breast cancer cells. That is, first of all, each of Compounds 1 to 4 was diluted with dimethyl sulfoxide to prepare a sample solution. Thereafter, 2×10^3 of MCF-7 were inoculated in each well of a 96-well plate, and estradiol and the sample solution were added thereto after 4 hours. Estradiol was added to each compartment so that the final concentration of estradiol can be 0.1 nM, and the final concentration of the sample solution can be 0.2 μM, 2 μM, or 20 μM. After incubation for a predetermined period of time (three or five days), each of the media was replaced with a new medium, and an enzyme solution (Cell counting Kit-8: Wako) was added to the new medium in an amount of 10% of the new medium. After maintained the medium in an incubator at a temperature of 37° C. for two hours, the absorbance of the medium was determined at a wavelength of 450 nm (a reference wave length of 630 nm) by means of a spectrophotometer so as to quantify the number of living cells in each compartment.
As for the compartment whose incubation period is predetermined to be five days, on the third day of the incubation, the medium was replaced with a new medium, and thereafter, estradiol and a sample solution were added to the new medium, and the incubation was continued till fifth day. As for the compartment whose incubation period is predetermined to be 0 day, at four hours after the cells were inoculated, an enzyme solution was added to the medium. The medium was maintained in an incubator at a temperature of 37° C. for two hours, followed by determining the absorbance.
Instead of Compounds 1 to 4, eriodictyol was used to determine the absorbance according to a similar procedure to the above-mentioned one, and thus the number of living cells in each compartment was quantified. Furthermore, Control 1 to which neither estradiol nor a sample had been added was used to determine the absorbance according to a similar procedure to the above-mentioned one, and thus the number of living cells in each compartment was quantified, while Control 2 to which no sample had been added was used to determine the absorbance according to a similar procedure to the above-mentioned one, and thus the number of living cells in each compartment was quantified.
When it is assumed that the number of living cells of Control 1 as quantified after a zero-day incubation period is 1, the relative value of living cells as quantified in each of the runs mentioned above is shown in Table 2. Incidentally, each of values shown in Table 2 is the average value and standard deviation of values obtained from eight wells.

[3] = 0.2 μM sample, after 3-days incubation
[4] = 0.2 μM sample, after 5-days incubation
[5] = 0.2 μM sample, on 0-day incubation, mean ± SD of eight wells
[6] = 2 μM sample, after 3-days incubation
[7] = 2 μM sample, after 5-days incubation
[8] = 2 μM sample, on 0-day incubation
[9] = 20 μM sample, after 3-days incubation
[10] = 20 μM sample, after 5-days incubation
[11] = 20 μM sample, on 0-day incubation

| Structure (SMILES) | Radical Scavenging Activity (%) from DPPH Radical Scavenging Activity Test [1] | Antioxidant Activity (%) from β-carotene Fading Test (β-carotene fading test) | antioxidant activity (in words) (β-carotene fading test) | Relative Value of Living Cells [2, 3] | Relative Value of Living Cells [2, 4] | Relative Value of Living Cells [2, 5] | Relative Value of Living Cells [2, 6] | Relative Value of Living Cells [2, 7] | Relative Value of Living Cells [2, 8] | Relative Value of Living Cells [2, 9] | Relative Value of Living Cells [2, 10] | Relative Value of Living Cells [2, 11] | inhibiting effect on the proliferation of breast cancer cells (in words) [2] | radical scavenging activity (in words) ([1]; comparison from Table 1) |
| --- | --- | --- | --- | --- | --- | --- | --- | --- | --- | --- | --- | --- | --- | --- |
| CC(C)=CCC/C(C)=C/Cc1c([C@@H]2CC(=O)c3c(cc(O)c(CC=C(C)C)c3O)O2)ccc(O)c1O [Compound 4, 5,7,3′,4′-tetrahydroxy-6-(3′″,3′″-dimethylallyl)-2′-C-geranylflavanone] | 50.79 ± 0.08% | 80.06 ± 0.29% | about the same high antioxidant activity as that of each of BHT, α-tocopherol, and eriodictyol | 2.97 ± 0.27 | 6.30 ± 0.54 | 0.99 ± 0.04 | 3.03 ± 0.30 | 6.41 ± 0.53 | 1.00 ± 0.07 | 1.27 ± 0.20 | 1.01 ± 0.12 | 0.98 ± 0.04 | cytotoxic effect upon breast cancer cells | – |
| CC(C)=CCC/C(C)=C/Cc1cc([C@@H]2CC(=O)c3c(O)cc(O)cc3O2)cc(O)c1O [Compound 2, 5,7,3′,4′-tetrahydroxy-5′-C-geranylflavanone] | 49.86 ± 0.96% | 78.07 ± 1.79% | about the same high antioxidant activity as that of each of BHT, α-tocopherol, and eriodictyol | 2.97 ± 0.37 | 6.83 ± 0.58 | 0.95 ± 0.04 | 2.68 ± 0.19 | 6.59 ± 0.50 | 0.99 ± 0.04 | 2.59 ± 0.21 | 5.59 ± 1.01 | 1.00 ± 0.07 | – | – |
| CC(C)=CCC/C(C)=C/Cc1c([C@@H]2CC(=O)c3c(O)cc(O)cc3O2)ccc(O)c1O [Compound 1, 5,7,3′,4′-tetrahydroxy-2′-C-geranylflavanone] | 55.35 ± 0.43% | 85.54 ± 2.24% | about the same high antioxidant activity as that of each of BHT, α-tocopherol, and eriodictyol | 2.86 ± 0.14 | 7.26 ± 0.48 | 0.98 ± 0.04 | 2.58 ± 0.11 | 6.01 ± 0.25 | 0.99 ± 0.05 | 2.22 ± 0.19 | 4.17 ± 0.50 | 1.01 ± 0.05 | – | – |
| CC(C)=CCC/C(C)=C/Cc1c(O)cc2c(c1O)C(=O)C[C@@H](c1ccc(O)c(O)c1)O2 [Compound 3, 5,7,3′,4′-tetrahydroxy-6-C-geranylflavanone] | 64.00 ± 0.58% | 60.62 ± 1.16% | – | 2.94 ± 0.20 | 6.99 ± 0.66 | 0.99 ± 0.05 | 2.53 ± 0.30 | 5.38 ± 0.44 | 1.01 ± 0.05 | 1.21 ± 0.22 | 0.89 ± 0.12 | 0.96 ± 0.04 | cytotoxic effect upon breast cancer cells | highest radical scavenging activity |
